Measurements from patent US20260115214A1, “APPLICATION OF INHIBITORS OF GLYCOLYTIC PATHWAY IN PREPARATION OF DRUGS FOR PREVENTING AND TREATING PORCINE REPRODUCTIVE AND RESPIRATORY SYNDROME VIRUS (PRRSV) INFECTION” (NANJING AGRICULTURAL UNIVERSITY, priority 2020, published 2026).

Legend:
PRRSV BB0907 strain = experiment: Treatment of PRRSV-infected piglets by oral administration; format: in vivo; conditions: for microscopic lung lesion scores: day 14, compared with challenge control group, P<0.01; for gross lung lesion scores: day 14, compared with positive control group, sodium oxamate P<0.01, Galloflavin P<0.001; for PRRSV viral load in the lungs / histopathological changes of lungs / gross lung lesions (observation) / clinical symptoms (observation) / clinical symptoms compared with the positive control group / weight growth rate / virus content in the serum (PRRSV genome copy number, qRT-PCR): oral daily, sodium oxamate 7 mg or Galloflavin 10 μg; for PRRSV viral load in the lungs: 14 dpi, P<0.0001; for histopathological changes of lungs: day 14; for gross lung lesions (observation): day 14, compared with the positive control group; for clinical symptoms (observation): days 0-14; for clinical symptoms compared with the positive control group: days 0-14, P<0.001; for weight growth rate: days 0-14, P>0.05 vs negative control; for virus content in the serum (PRRSV genome copy number, qRT-PCR): serum at 1, 4, 7, 10, 14 dpi
PRRSV = PRRSV replication in infected Marc-145 cells treated with glycolysis inhibitors (Western blotting, TCID50, RT-PCR); format: cell-based, porcine reproductive and respiratory syndrome virus; conditions: for PRRSV ORF7 mRNA level in the cells (RT-PCR) / virus titer (TCID50) in cell culture medium: 36 h, 2-DG 0-15 μM; for PRRSV ORF7 mRNA level in the cells (RT-PCR) / PRRSV N protein expression level (Western blotting) / virus titer (TCID50) in cell culture medium: SO 0, 25, 50 mM; for PRRSV ORF7 mRNA level in the cells (RT-PCR) / PRRSV N protein expression level (Western blotting): Gal 10, 50, 100 μM; for PRRSV N protein expression level (Western blotting): 36 h after infection
Procedure: Highly pathogenic PRRSV strains BB0907 and Marc-145 cells are maintained in the laboratory and are conventional strains and cells disclosed in the prior art.
Marc-145 cells were cultured in a 96-well plate. When the cell confluence reached 70%, a nutrient solution was pipetted, and the cell surface was washed 3 times with PBS. Ten-fold serial dilutions of PRRSV were added to the cells and incubated at 37° C. for 1 h. A medium was replaced with fresh 2% FBS-DMEM. Virus titers were determined 5 days post inoculation (dpi) by endpoint dilution assay. 50% tissue culture infectious dose (TCID50) was calculated by a Reed-Muench method.
Cellular RNA was extracted following operating instructions of an OMEGA RNA virus extraction kit. After reverse transcription into cDNA, […].
By a 2-ΔΔCt method, the relative content of mRNA in each gene in the samples was calculated by a CT value.
(§1) To explore the effect of glycolysis in cells on PRRSV replication, an inhibitor of glycolytic pathway, 2-DG, was used to inhibit glycolysis in cells. […] After the Marc-145 cells were infected with PRRSV (0.01 MOI), the Marc-145 cells were treated with 0 μM, 2.5 μM, 5 μM, 10 μM and 15 μM of 2-DG respectively. After 36 hours, the inhibition efficiency of the 2-DG on PRRSV on the Marc-145 cells was detected by Western blotting.
To further verify the effect of glycolysis on PRRSV, PRRSV-infected Marc-145 cells were treated with a key enzyme in the last step of glycolysis, that is, an inhibitor of lactate dehydrogenase, sodium oxamate (SO). A control group was set up to detect whether there was a difference in the level of virus replication. […] After the Marc-145 cells were infected with PRRSV (0.01 MOI), the Marc-145 cells were treated with 0 mM, 25 mM and 50 mM of SO. 36 h after infection, the PRRSV N protein expression level, virus titer and PRRSV ORF7 mRNA level were detected by Western blotting, TCID50 and RT-PCR respectively.
PRRSV-infected Marc-145 cells were treated with an inhibitor of lactate dehydrogenase (Galloflavin, Gal), and a control group was set up to detect differences in viral replication levels. […] After Marc-145 cells were infected with PRRSV (0.01 MOI), the Marc-145 cells were treated with 10 μM, 50 μM and 100 μM of Gal. […] In addition, A PRRSV ORF7 mRNA level and the virus titer were detected by TCID50 and RT-PCR.

Marc-145 cells = format: cell-based; conditions: monkey, 48 h
Procedure: Marc-145 cells were cultured in 10% FBS-DMEM containing different concentrations of sodium oxamate (1-250 mM), Galloflavin (0-2.5 mM) and 2-deoxy-D-glucose (0-20 μM), and incubated at 37° C. for 48 h. Cell viability was detected with an enhanced CCK8 kit. DMSO was used as a negative control.
as §1
To further verify the effect of glycolysis on PRRSV, PRRSV-infected Marc-145 cells were treated with a key enzyme in the last step of glycolysis, that is, an inhibitor of lactate dehydrogenase, sodium oxamate (SO). […] 36 h after infection, the PRRSV N protein expression level, virus titer and PRRSV ORF7 mRNA level were detected by Western blotting, TCID50 and RT-PCR respectively.
PRRSV-infected Marc-145 cells were treated with an inhibitor of lactate dehydrogenase (Galloflavin, Gal), and a control group was set up to detect differences in viral replication levels. […] In addition, A PRRSV ORF7 mRNA level and the virus titer were detected by TCID50 and RT-PCR.

SMILES | microscopic lung lesion scores (PRRSV BB0907 strain) | gross lung lesion scores (PRRSV BB0907 strain) | PRRSV viral load in the lungs (PRRSV BB0907 strain) | histopathological changes of lungs (PRRSV BB0907 strain) | gross lung lesions (observation) (PRRSV BB0907 strain) | clinical symptoms (observation) (PRRSV BB0907 strain) | clinical symptoms compared with the positive control group (PRRSV BB0907 strain) | weight growth rate (PRRSV BB0907 strain) | virus content in the serum (PRRSV genome copy number, qRT-PCR) (PRRSV BB0907 strain) | level of PRRSV replication (figure legend) (PRRSV) | PRRSV ORF7 mRNA level in the cells (RT-PCR) (PRRSV; PRRSV 0.01 MOI) | PRRSV N protein expression level (Western blotting) (PRRSV; PRRSV 0.01 MOI) | virus titer (TCID50) in cell culture medium (PRRSV; PRRSV 0.01 MOI) | inhibition at 5 µM (PRRSV; Porcine reproductive and respiratory syndrome virus, MARC145, concentration of 5 μM, PRRSV 0.01 MOI, after 36 hours, read-out: inhibition efficiency against PRRSV (Western blotting)) [%] | concentration at which the substance starts to be toxic to the cells (CCK8) (Marc-145 cells) [µM]
O=c1oc2c(cc1O)oc(=O)c1cc(O)c(O)c(O)c12 [Galloflavin] | significantly lower than those of the challenge control group | more significantly lower | significantly lower than that in the positive control group | significantly alleviated, similar to those in the negative control group | significantly minor lung lesions | no obvious clinical symptoms | significantly relieved clinical symptoms | approximate to that of the negative control group | significantly lower than that in the positive control group | reduces the level of PRRSV replication | decrease the mRNA level of PRRSV in a dose-dependent manner | decrease PRRSV replication in the cells in a dose-dependent manner |  |  | 
O=CC[C@@H](O)[C@H](O)[C@H](O)CO [2-DG, 2-deoxy-D-glucose] |  |  |  |  |  |  |  |  |  | reduces the level of PRRSV replication | decreased in a dose-dependent manner |  | decreased in a dose-dependent manner | ~50 | 
NC(=O)C(=O)[O-].[Na+] [sodium oxamate] | significantly lower than those of the challenge control group | significantly lower | significantly lower than that in the positive control group | mild thickened alveolar septa and inflammatory cell infiltration | significantly minor lung lesions | no obvious clinical symptoms | significantly relieved clinical symptoms | approximate to that of the negative control group | significantly lower than that in the positive control group | reduces the level of PRRSV replication | reduce PRRSV replication in the cells in a dose-dependent manner | reduce PRRSV replication in the cells in a dose-dependent manner | reduce PRRSV replication in the cells in a dose-dependent manner |  | 100000
